Among the data in BindingDB's records for doi:10.1021/acs.jmedchem.8b01908 (Chinese Academy of Sciences, 2019) are IC50 values, retold here.

Positions of bridges follow the written chain, without caps; N, C: chain ends. Residues, ends and D or L forms follow the SMILES beside them.

A short description of the experiment: Inhibition of the intrinsic peri-cellular uPA in mouse CT26 cells assessed as reduction in cell invasion measured every hour by transwell assay.
As for `CC[C@H](C)[C@@H]1NC(=O)[C@H](Cc2ccc(O)cc2)NC(=O)[C@H](CCCNC(=N)N)NC(=O)[C@H](CO)NC(=O)[C@H](Cc2ccc(O)cc2)NC(=O)[C@H](C)NC(=O)[C@@H]2CCCN2C(=O)[C@@H](N)CSSC[C@@H](C(=O)O)NC(=O)CNC1=O` (H-CPAYSRYIGC-OH; disulfide 1-10), the IC50 stood at 3.28 µM. Regarding `CC[C@H](C)[C@@H]1NC(=O)[C@H](Cc2ccc(O)cc2)NC(=O)[C@H](CCCNC(=N)N)NC(=O)[C@H](CO)NC(=O)[C@H](Cc2ccc(O)cc2)NC(=O)[C@H](C)NC(=O)[C@@H]2CCCN2C(=O)[C@@H](NC(C)=O)CSSC[C@@H](C(N)=O)NC(=O)CNC1=O` (Ac-CPAYSRYIGC-NH2; disulfide 1-10), the IC50 was 5.02 µM. Consider `CC(=O)N[C@H]1CSSC[C@@H](C(N)=O)NC(=O)[C@H](CC(=O)O)NC(=O)[C@H](CC(C)C)NC(=O)[C@H](Cc2ccc(O)cc2)NC(=O)[C@H](CCCNC(=N)N)NC(=O)[C@H](CO)NC(=O)[C@H](Cc2ccc(O)cc2)NC(=O)[C@H](C)NC(=O)[C@@H]2CCCN2C1=O` (Ac-CPAYSRYLDC-NH2; disulfide 1-10), for which the IC50 stood at 39.4 µM.

In general, IC50 refers to the concentration that inhibits the measured activity by half.
